Measured values as given in the CheMixHub ionic liquid set.
“And” between values parts separate entries of the source, which are not always exact repeats. Identical values can stand only once.

Test: xn = mol fraction of the nth substance listed

CCCC[n+]1ccn(C)c1.[Br-] + O
Conditions | electrical conductivity [S/m] | viscosity
288.15 K, 100 kPa, x1 = 0.00126 | – | 1.159 mPa·s
293.15 K, 100 kPa, x1 = 0.0009002 | – | 1.033 mPa·s
293.15 K, 100 kPa, x1 = 0.001799 | – | 1.057 mPa·s
293.15 K, 100 kPa, x1 = 0.002696 | – | 1.069 mPa·s
298.15 K, 100 kPa, x1 = 0.0001802 | – | 0.916 mPa·s
298.15 K, 100 kPa, x1 = 0.0007203 | – | 0.921 mPa·s
298.15 K, 100 kPa, x1 = 0.0009002 | – | 0.918 mPa·s
298.15 K, 100 kPa, x1 = 0.00126 | – | 0.93 mPa·s
298.15 K, 100 kPa, x1 = 0.001799 | – | 0.938 mPa·s
298.15 K, 100 kPa, x1 = 0.002696 | – | 1 mPa·s
298.15 K, 101 kPa, x1 = 1.982e-05 | – | 0.888 mPa·s
298.15 K, 101 kPa, x1 = 3.243e-05 | – | 0.889 mPa·s
298.15 K, 101 kPa, x1 = 0.00999 | 3.16 | –
298.15 K, 101 kPa, x2 = 0.9094 | 6.16 | –
298.15 K, 101 kPa, x2 = 0.94 | 6.13 | –
298.15 K, 101 kPa, x2 = 0.9612 | 5.7 | –
298.15 K, 101 kPa, x2 = 0.9773 | 4.79 | –
298.15 K, 101.3 kPa, x1 = 0.000902 | – | 0.911 mPa·s
298.15 K, 101.3 kPa, x1 = 0.0009056 | – | 0.91 mPa·s and 0.911 mPa·s
298.15 K, 101.3 kPa, x1 = 0.0009074 | – | 0.911 mPa·s
298.15 K, 101.3 kPa, x1 = 0.000911 | – | 0.91 mPa·s
298.15 K, 101.3 kPa, x1 = 0.00144 | – | 0.933 mPa·s and 0.936 mPa·s
298.15 K, 101.3 kPa, x1 = 0.001806 | – | 0.934 mPa·s and 0.935 mPa·s
298.15 K, 101.3 kPa, x1 = 0.001835 | – | 0.923 mPa·s
298.15 K, 101.3 kPa, x1 = 0.001856 | – | 0.932 mPa·s
298.15 K, 101.3 kPa, x1 = 0.0036 | – | 0.966 mPa·s
298.15 K, 101.3 kPa, x1 = 0.003602 | – | 0.961 mPa·s
298.15 K, 101.3 kPa, x1 = 0.003605 | – | 0.961 mPa·s and 0.963 mPa·s
298.15 K, 101.3 kPa, x1 = 0.005384 | – | 0.994 mPa·s
298.15 K, 101.3 kPa, x1 = 0.005411 | – | 0.997 mPa·s and 0.998 mPa·s
298.15 K, 101.3 kPa, x1 = 0.005432 | – | 1.004 mPa·s
303.15 K, 100 kPa, x1 = 0.0009002 | – | 0.823 mPa·s
303.15 K, 100 kPa, x1 = 0.001799 | – | 0.84 mPa·s
303.15 K, 100 kPa, x1 = 0.002696 | – | 0.905 mPa·s
303.15 K, 100 kPa, x1 = 0.05 | – | 2 mPa·s
303.15 K, 100 kPa, x1 = 0.0992 | – | 3.31 mPa·s
303.15 K, 100 kPa, x1 = 0.3882 | – | 31.2 mPa·s
308.15 K, 100 kPa, x1 = 0.0001802 | – | 0.751 mPa·s
308.15 K, 100 kPa, x1 = 0.0007203 | – | 0.756 mPa·s
308.15 K, 100 kPa, x1 = 0.0009002 | – | 0.753 mPa·s
308.15 K, 100 kPa, x1 = 0.00126 | – | 0.763 mPa·s
308.15 K, 100 kPa, x1 = 0.001799 | – | 0.758 mPa·s
308.15 K, 100 kPa, x1 = 0.002696 | – | 0.795 mPa·s
308.15 K, 101 kPa, x1 = 3.243e-05 | – | 0.723 mPa·s
308.15 K, 101 kPa, x1 = 6.584e-05 | 0.0466 | 0.727 mPa·s
308.15 K, 101 kPa, x1 = 6.667e-05 | – | 0.727 mPa·s
308.15 K, 101 kPa, x1 = 0.0001326 | 0.0915 | 0.735 mPa·s
308.15 K, 101.3 kPa, x1 = 0.000902 | – | 0.738 mPa·s
308.15 K, 101.3 kPa, x1 = 0.0009056 | – | 0.735 mPa·s and 0.736 mPa·s
308.15 K, 101.3 kPa, x1 = 0.0009074 | – | 0.737 mPa·s
308.15 K, 101.3 kPa, x1 = 0.000911 | – | 0.735 mPa·s
308.15 K, 101.3 kPa, x1 = 0.001806 | – | 0.752 mPa·s
308.15 K, 101.3 kPa, x1 = 0.001835 | – | 0.746 mPa·s and 0.747 mPa·s
308.15 K, 101.3 kPa, x1 = 0.001856 | – | 0.75 mPa·s
308.15 K, 101.3 kPa, x1 = 0.0036 | – | 0.776 mPa·s
308.15 K, 101.3 kPa, x1 = 0.003602 | – | 0.773 mPa·s
308.15 K, 101.3 kPa, x1 = 0.003605 | – | 0.77 mPa·s and 0.771 mPa·s
308.15 K, 101.3 kPa, x1 = 0.005384 | – | 0.798 mPa·s
308.15 K, 101.3 kPa, x1 = 0.005411 | – | 0.801 mPa·s
308.15 K, 101.3 kPa, x1 = 0.005432 | – | 0.802 mPa·s
310.15 K, 101.3 kPa, x1 = 0.000902 | – | 0.711 mPa·s
310.15 K, 101.3 kPa, x1 = 0.0009056 | – | 0.707 mPa·s
310.15 K, 101.3 kPa, x1 = 0.0009074 | – | 0.71 mPa·s
310.15 K, 101.3 kPa, x1 = 0.000911 | – | 0.707 mPa·s
310.15 K, 101.3 kPa, x1 = 0.001806 | – | 0.723 mPa·s
310.15 K, 101.3 kPa, x1 = 0.001835 | – | 0.717 mPa·s and 0.718 mPa·s
310.15 K, 101.3 kPa, x1 = 0.001856 | – | 0.723 mPa·s
310.15 K, 101.3 kPa, x1 = 0.0036 | – | 0.75 mPa·s
310.15 K, 101.3 kPa, x1 = 0.003602 | – | 0.746 mPa·s
310.15 K, 101.3 kPa, x1 = 0.003605 | – | 0.74 mPa·s and 0.742 mPa·s
310.15 K, 101.3 kPa, x1 = 0.005384 | – | 0.767 mPa·s
310.15 K, 101.3 kPa, x1 = 0.005411 | – | 0.767 mPa·s
310.15 K, 101.3 kPa, x1 = 0.005432 | – | 0.772 mPa·s
313.15 K, 100 kPa, x1 = 0.0009002 | – | 0.676 mPa·s
313.15 K, 100 kPa, x1 = 0.001799 | – | 0.689 mPa·s
313.15 K, 100 kPa, x1 = 0.002696 | – | 0.749 mPa·s
313.15 K, 100 kPa, x1 = 0.3882 | – | 20 mPa·s
313.15 K, 101.3 kPa, x1 = 0.00144 | – | 0.58 mPa·s and 0.695 mPa·s and 0.697 mPa·s
318.15 K, 100 kPa, x1 = 0.0001802 | – | 0.634 mPa·s
318.15 K, 100 kPa, x1 = 0.0007203 | – | 0.64 mPa·s
318.15 K, 100 kPa, x1 = 0.0009002 | – | 0.618 mPa·s and 0.619 mPa·s
318.15 K, 100 kPa, x1 = 0.00126 | – | 0.646 mPa·s
318.15 K, 100 kPa, x1 = 0.001799 | – | 0.631 mPa·s
318.15 K, 100 kPa, x1 = 0.002696 | – | 0.68 mPa·s
318.15 K, 101.3 kPa, x1 = 0.000902 | – | 0.611 mPa·s
318.15 K, 101.3 kPa, x1 = 0.0009056 | – | 0.608 mPa·s and 0.609 mPa·s
318.15 K, 101.3 kPa, x1 = 0.0009074 | – | 0.612 mPa·s
318.15 K, 101.3 kPa, x1 = 0.000911 | – | 0.608 mPa·s
318.15 K, 101.3 kPa, x1 = 0.001806 | – | 0.623 mPa·s
318.15 K, 101.3 kPa, x1 = 0.001835 | – | 0.619 mPa·s
318.15 K, 101.3 kPa, x1 = 0.001856 | – | 0.622 mPa·s
318.15 K, 101.3 kPa, x1 = 0.0036 | – | 0.643 mPa·s
318.15 K, 101.3 kPa, x1 = 0.003602 | – | 0.642 mPa·s
318.15 K, 101.3 kPa, x1 = 0.003605 | – | 0.638 mPa·s and 0.639 mPa·s
318.15 K, 101.3 kPa, x1 = 0.005384 | – | 0.659 mPa·s and 0.66 mPa·s
318.15 K, 101.3 kPa, x1 = 0.005411 | – | 0.66 mPa·s
318.15 K, 101.3 kPa, x1 = 0.005432 | – | 0.665 mPa·s
323.15 K, 100 kPa, x1 = 0.3882 | – | 14.6 mPa·s
333.15 K, 100 kPa, x1 = 0.05 | – | 1.04 mPa·s
333.15 K, 100 kPa, x1 = 0.0992 | – | 1.66 mPa·s
333.15 K, 100 kPa, x1 = 0.1979 | – | 3.69 mPa·s
333.15 K, 100 kPa, x1 = 0.2517 | – | 4.94 mPa·s
333.15 K, 100 kPa, x1 = 0.3882 | – | 10.6 mPa·s
